Patent US7981926B2, “Fluorotaxoids” (Research Foundation of State University of New York, priority 2005, dated 2011)
Where two headings read alike, the source gives them in different places.

Legend:
[1] = system: MCF7-R (mammary carcinoma cells 250-fold resistant to paclitaxel); test: Tumor growth inhibitory activity (cytotoxicity), SRB method of Skehan et al, MCF7-R; format: cell-based, human; conditions: for IC50: read-out: IC50 MCF7-R (breast); for R/S (resistance factor): ratio of cytotoxicity against drug-resistant MCF7-R (R) to drug-sensitive MCF7 (S)
Source text: (§1) The results were obtained according to the methods of Skehan et al (See Skehan et al., J. Nat. Cancer Inst., 82, 1107 (1990)), as more fully described in the Examples. The resistance factor (R/S) shown in the table is a measure of the degree of resistance of a cell line against a taxoid compound. The resistance factor is a ratio of the cytoxicity of a taxoid compound against a drug-resistant cell line (R) as compared to its cytoxicity against a drug-sensitive cell line (S).
(§2) In the tables, lower numbers indicate higher potency (or greater activity). Paclitaxel was used as the standard for comparison. The data represent the mean values of at least three separate experiments.
(§3) Assessment of cell growth inhibition was determined according to the methods of Skehan et al (See Skehan et al., J. Nat. Cancer Inst., 82, 1107 (1990)). Briefly, cells were plated between 400 and 1200 cells/well in 96 well plates and incubated at 37° C. for 15-18 h prior to drug addition to allow attachment of cells. Compounds tested were solubilized in 100% DMSO and further diluted in RPMI-1640 containing 10 mM HEPES. Each cell line was treated with 10 concentrations of compounds (5 log range). After a 72 h incubation, 100 μL of ice-cold 50% TCA was added to each well and incubated for 1 h at 4° C. Plates were then washed 5 times with tap water to remove TCA, low-molecular-weight metabolites and serum proteins. Sulforhodamine B (SRB) (0.4%, 50 μL) was added to each well. Following a 5 minute incubation at room temperature, plates were rinsed 5 times with 0.1% acetic acid and air dried. Bound dye was solubilized with 10 mM Tris Base (pH 10.5) for 5 min on a gyratory shaker. Optical density was measured at 570 nm.
(§4) Data were fit with the Sigmoid-Emax concentration-effect model with non-linear regression, weighted by the reciprocal of the square of the predicted response (see Holford, N. H. G.; Scheiner, L. B., “Understanding the dose-effect relationship: Clinical applications of pharmaco-kinetic-pharmacodynamic models,” Clin. Pharmacokin., 6, 429-453 (1981)). The fitting software was developed by the Roswell Park Cancer Institute with Microsoft FORTRAN, and uses the Marquardt algorithm (see Marquardt, D. W., “An algorithm for least squares estimation of nonlinear parameters,” J. Soc. Ind. Appl. Math., 11, 431-441 (1963)) as adopted by Nash for the non-linear regression (see Nash, J. C., “Compact numerical method for computers: Linear algebra and function minimization,” John Wiley & Sons, New York, 1979).

[2] = system: MCF7 (mammary carcinoma); test: Tumor growth inhibitory activity (cytotoxicity), SRB method of Skehan et al, MCF7; format: cell-based, human; conditions: read-out: IC50 MCF7 (breast)
Source text: as §1, §2, §3, §4

[3] = Homo sapiens, MCF7R, drug-resistant cell line, 72 h drug exposure, SRB, mean of at least three separate experiments
[4] = Homo sapiens, MCF7, 72 h drug exposure, SRB, mean of at least three separate experiments
[5] = drug-resistant cell line, 72 h drug exposure, SRB, mean of at least three separate experiments
[6] = 72 h drug exposure, SRB, mean of at least three separate experiments

CC(=O)O[C@H]1C(=O)[C@@]2(C)[C@H]([C@H](OC(=O)c3ccccc3)[C@]3(O)C[C@H](OC(=O)[C@H](O)[C@@H](NC(=O)c4ccccc4)c4ccccc4)C(C)=C1C3(C)C)[C@]1(OC(C)=O)CO[C@@H]1C[C@@H]2O [Paclitaxel, paclitaxel, reference compound] was tested, and the IC50 [1, 3] was 300000 pM, the “R/S (resistance factor)” value [1] was 250 and the IC50 [2, 4] was 1200 pM.

With COc1cccc(C(=O)O[C@H]2C3[C@](C)(C(=O)[C@H](OC(C)=O)C4=C(C)[C@@H](OC(=O)[C@H](O)[C@H](C=C(F)F)NC(=O)OC(C)(C)C)C[C@]2(O)C4(C)C)[C@@H](O)C[C@H]2OC[C@@]32OC(C)=O)c1 (stereo partly drawn) [SB-T-12851-1, 3′-Dephenyl-3′-(2,2-difluorovinyl)-2-debenzoyl-2-(3-methoxybenzoyl)-10-acetyldocetaxel] the IC50 [1, 3] was 1500 pM, the “R/S (resistance factor)” value [1] was 6.0 and the IC50 [2, 4] was 250 pM.

With CC(=O)O[C@H]1C(=O)[C@@]2(C)C([C@H](OC(=O)c3cccc(F)c3)[C@]3(O)C[C@H](OC(=O)[C@H](O)[C@H](C=C(F)F)NC(=O)OC(C)(C)C)C(C)=C1C3(C)C)[C@]1(OC(C)=O)CO[C@@H]1C[C@@H]2O (stereo partly drawn) [SB-T-12851-2, 3′-Dephenyl-3′-(2,2-difluorovinyl)-2-debenzoyl-2-(3-fluorobenzoyl)-10-acetyldocetaxel] the IC50 [1, 3] was 1530 pM, the “R/S (resistance factor)” value [1] was 12 and the IC50 [2, 4] was 130 pM.

CC(=O)O[C@H]1C(=O)[C@@]2(C)C([C@H](OC(=O)c3cccc(N=[N+]=[N-])c3)[C@]3(O)C[C@H](OC(=O)[C@H](O)[C@H](C=C(F)F)NC(=O)OC(C)(C)C)C(C)=C1C3(C)C)[C@]1(OC(C)=O)CO[C@@H]1C[C@@H]2O (stereo partly drawn) [SB-T-12851-3, 3′-Dephenyl-3′-(2,2-difluorovinyl)-2-debenzoyl-2-(3-azidobenzoyl)-10-acetyldocetaxel] was tested, and the IC50 [1, 3] was 340 pM, the “R/S (resistance factor)” value [1] was 3.7 and the IC50 [2, 4] was 92 pM.

For CC(=O)O[C@H]1C(=O)[C@@]2(C)C([C@H](OC(=O)c3cccc(Cl)c3)[C@]3(O)C[C@H](OC(=O)[C@H](O)[C@H](C=C(F)F)NC(=O)OC(C)(C)C)C(C)=C1C3(C)C)[C@]1(OC(C)=O)CO[C@@H]1C[C@@H]2O (stereo partly drawn) [SB-T-12851-4, 3′-Dephenyl-3′-(2,2-difluorovinyl)-2-debenzoyl-2-(3-chlorobenzoyl)-10-acetyldocetaxel], the IC50 [1, 3] was 700 pM, the “R/S (resistance factor)” value [1] was 5.4 and the IC50 [2, 4] was 130 pM.

For CC(=O)O[C@@]12CO[C@@H]1C[C@H](O)[C@@]1(C)C(=O)[C@H](OC(=O)C3CC3)C3=C(C)[C@@H](OC(=O)[C@H](O)[C@H](C=C(F)F)NC(=O)OC(C)(C)C)C[C@@](O)([C@@H](OC(=O)c4ccccc4)[C@H]21)C3(C)C [SB-T-12852, 3′-dephenyl-3′-(2,2-difluorovinyl)-10-cyclopropanecarbonyl-docetaxel], the IC50 [1, 5] was 6030 pM, the “R/S (resistance factor)” value [1] was 53 and the IC50 [2, 6] was 120 pM.

In the case of COc1cccc(C(=O)O[C@H]2[C@@H]3[C@]4(OC(C)=O)CO[C@@H]4C[C@H](O)[C@@]3(C)C(=O)[C@H](OC(=O)C3CC3)C3=C(C)[C@@H](OC(=O)[C@H](O)[C@H](C=C(F)F)NC(=O)OC(C)(C)C)C[C@]2(O)C3(C)C)c1 [SB-T-12852-1, 3′-Dephenyl-3′-(2,2-difluorovinyl)-2-debenzoyl-2-(3-methoxybenzoyl)-10-cyclopropanecarbonyldocetaxel], the IC50 [1, 5] is reported as 480 pM, the “R/S (resistance factor)” value [1] is reported as 5.2 and the IC50 [2, 6] is reported as 92 pM.

CC(=O)OC12COC1CC(O)C1(C)C(=O)C(OC(=O)C3CC3)C3=C(C)C(OC(=O)C(O)C(C=C(F)F)NC(=O)OC(C)(C)C)CC(O)(C(OC(=O)c4cccc(F)c4)C21)C3(C)C (stereo not drawn) [SB-T-12852-2, 3′-Dephenyl-3′-(2,2-difluorovinyl)-2-debenzoyl-2-(3-fluorobenzoyl)-10-cyclopropanecarbonyldocetaxel] was tested, and the IC50 [1, 5] was 1720 pM, the “R/S (resistance factor)” value [1] was 23 and the IC50 [2, 6] was 76 pM.

CC(=O)O[C@@]12CO[C@@H]1C[C@H](O)[C@@]1(C)C(=O)[C@H](OC(=O)C3CC3)C3=C(C)[C@@H](OC(=O)[C@H](O)[C@H](C=C(F)F)NC(=O)OC(C)(C)C)C[C@@](O)([C@@H](OC(=O)c4cccc(N=[N+]=[N-])c4)[C@H]21)C3(C)C [SB-T-12852-3, 3′-Dephenyl-3′-(2,2-difluorovinyl)-2-debenzoyl-2-(3-azidobenzoyl)-10-cyclopropanecarbonyldocetaxel] was tested, and the IC50 [1, 5] was 450 pM, the “R/S (resistance factor)” value [1] was 4.9 and the IC50 [2, 6] was 92 pM.

With CC(=O)OC12COC1CC(O)C1(C)C(=O)C(OC(=O)C3CC3)C3=C(C)C(OC(=O)C(O)C(C=C(F)F)NC(=O)OC(C)(C)C)CC(O)(C(OC(=O)c4cccc(Cl)c4)C21)C3(C)C (stereo not drawn) [SB-T-12852-4, 3′-Dephenyl-3′-(2,2-difluorovinyl)-2-debenzoyl-2-(3-chlorobenzoyl)-10-cyclopropanecarbonyldocetaxel] the IC50 [1, 5] was 500 pM, the “R/S (resistance factor)” value [1] was 4.2 and the IC50 [2, 6] was 120 pM.

CCC(=O)O[C@H]1C(=O)[C@@]2(C)C([C@H](OC(=O)c3cccc(OC)c3)[C@]3(O)C[C@H](OC(=O)[C@H](O)[C@H](C=C(F)F)NC(=O)OC(C)(C)C)C(C)=C1C3(C)C)[C@]1(OC(C)=O)CO[C@@H]1C[C@@H]2O (stereo partly drawn) [SB-T-12853-1, 3′-Dephenyl-3′-(2,2-difluorovinyl)-2-debenzoyl-2-(3-methoxybenzoyl)-10-propanoyldocetaxel] was tested, and the IC50 [1, 3] was 570 pM, the “R/S (resistance factor)” value [1] was 1.7 and the IC50 [2, 4] was 340 pM.

For CCC(=O)O[C@H]1C(=O)[C@@]2(C)C([C@H](OC(=O)c3cccc(F)c3)[C@]3(O)C[C@H](OC(=O)[C@H](O)[C@H](C=C(F)F)NC(=O)OC(C)(C)C)C(C)=C1C3(C)C)[C@]1(OC(C)=O)CO[C@@H]1C[C@@H]2O (stereo partly drawn) [SB-T-12853-2, 3′-Dephenyl-3′-(2,2-difluorovinyl)-2-debenzoyl-2-(3-fluorobenzoyl)-10-propanoyldocetaxel], the IC50 [1, 3] was 2540 pM, the “R/S (resistance factor)” value [1] was 11 and the IC50 [2, 4] was 230 pM.

CCC(=O)O[C@H]1C(=O)[C@@]2(C)C([C@H](OC(=O)c3cccc(N=[N+]=[N-])c3)[C@]3(O)C[C@H](OC(=O)[C@H](O)[C@H](C=C(F)F)NC(=O)OC(C)(C)C)C(C)=C1C3(C)C)[C@]1(OC(C)=O)CO[C@@H]1C[C@@H]2O (stereo partly drawn) [SB-T-12853-3, 3′-Dephenyl-3′-(2,2-difluorovinyl)-2-debenzoyl-2-(3-azidobenzoyl)-10-propanoyldocetaxel] was tested, and the IC50 [1, 3] was 380 pM, the “R/S (resistance factor)” value [1] was 2.9 and the IC50 [2, 4] was 130 pM.

For CCC(=O)O[C@H]1C(=O)[C@@]2(C)C([C@H](OC(=O)c3cccc(Cl)c3)[C@]3(O)C[C@H](OC(=O)[C@H](O)[C@H](C=C(F)F)NC(=O)OC(C)(C)C)C(C)=C1C3(C)C)[C@]1(OC(C)=O)CO[C@@H]1C[C@@H]2O (stereo partly drawn) [SB-T-12853-4, 3′-Dephenyl-3′-(2,2-difluorovinyl)-2-debenzoyl-2-(3-chlorobenzoyl)-10-propanoyldocetaxel], the IC50 [1, 3] was 450 pM, the “R/S (resistance factor)” value [1] was 3.5 and the IC50 [2, 4] was 130 pM.

With COc1cccc(C(=O)O[C@H]2C3[C@](C)(C(=O)[C@H](OC(=O)N(C)C)C4=C(C)[C@@H](OC(=O)[C@H](O)[C@H](C=C(F)F)NC(=O)OC(C)(C)C)C[C@]2(O)C4(C)C)[C@@H](O)C[C@H]2OC[C@@]32OC(C)=O)c1 (stereo partly drawn) [SB-T-12854-1, 3′-dephenyl-3′-(2,2-difluorovinyl)-2-debenzoyl-2-(3-methoxybenzoyl)-10-dimethylcarbamate-docetaxel] the IC50 ([1]; Homo sapiens, MCF7R, 72 h) was 960 pM, the “R/S (resistance factor)” value [1] was 8.7 and the IC50 ([2]; Homo sapiens, MCF7, 72 h) was 110 pM.
